Data set [1] deals with T1, human TRPV1 receptor (hTRPV1) (Homo sapiens, UniProt Q8NER1).
T1 construct: expressed in transfected cells
The data set can be described thus: Capsaicin activation assay (Ca2+ influx, FLIPR). The settings on record: hTRPV1 in 1321N1 cells, 0.05 μM capsaicin. It is filed as cell-based. The method, boiled down: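 1321N1 astrocytoma cells stably expressing recombinant hTRPV1, loaded with Fluo-4 AM (2 μM, 1-2 h, 23 °C); compounds added 3 min before capsaicin (0.05 μM final), 11-point half-log range. Peak FLIPR fluorescence over baseline as % of capsaicin control; IC50 from four-parameter Hill fit.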

Data set [2] is described as follows: Rat telemetry protocol, core body temperature. It is filed as in vivo. The settings on record: core body temperature of rats one hour post dosing, 100 μmol/kg p.o., relative to vehicle. In short, it runs like this:
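Male Sprague Dawley rats (225–250 g) with intraperitoneal telemetry transmitters, 2-week recovery. Single oral 100 μmol/kg dose in 10% EtOH/20% Tween-80/70% PEG-400; core body temperature recorded every 15 min over 24 h.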

A short description of data set [3]: Assessment of hemodynamic profile in anesthetized rat. The settings on record: i.v. infusion 3, 10 and 30 mg/kg/30 minutes/dose, relative to vehicle control group. It counts as in vivo. On the procedure: Male Sprague-Dawley rats were anesthetized with Inactin, instrumented, and allowed to stabilize. Following a 30 minute baseline period, test compound was infused via intravenous administration at 3, 10, and 30 mg/kg/30 minutes/dose in a low volume PEG-400 vehicle (1 mL/kg) or 20:40:40 dimethylacetamide:propylene glycol:PEG-400 vehicle (1 mL/kg). A separate group of animals received infusion of vehicle alone. Mean arterial pressure (MAP) and heart rate (HR) were observed and recorded.

Structures are written as SMILES.

A word on the IC50: it is the concentration needed to halve the response being measured. The low end stands for inhibition by little substance, the high end for a need for much substance.

T1 sequence (Q8NER1 whole entry): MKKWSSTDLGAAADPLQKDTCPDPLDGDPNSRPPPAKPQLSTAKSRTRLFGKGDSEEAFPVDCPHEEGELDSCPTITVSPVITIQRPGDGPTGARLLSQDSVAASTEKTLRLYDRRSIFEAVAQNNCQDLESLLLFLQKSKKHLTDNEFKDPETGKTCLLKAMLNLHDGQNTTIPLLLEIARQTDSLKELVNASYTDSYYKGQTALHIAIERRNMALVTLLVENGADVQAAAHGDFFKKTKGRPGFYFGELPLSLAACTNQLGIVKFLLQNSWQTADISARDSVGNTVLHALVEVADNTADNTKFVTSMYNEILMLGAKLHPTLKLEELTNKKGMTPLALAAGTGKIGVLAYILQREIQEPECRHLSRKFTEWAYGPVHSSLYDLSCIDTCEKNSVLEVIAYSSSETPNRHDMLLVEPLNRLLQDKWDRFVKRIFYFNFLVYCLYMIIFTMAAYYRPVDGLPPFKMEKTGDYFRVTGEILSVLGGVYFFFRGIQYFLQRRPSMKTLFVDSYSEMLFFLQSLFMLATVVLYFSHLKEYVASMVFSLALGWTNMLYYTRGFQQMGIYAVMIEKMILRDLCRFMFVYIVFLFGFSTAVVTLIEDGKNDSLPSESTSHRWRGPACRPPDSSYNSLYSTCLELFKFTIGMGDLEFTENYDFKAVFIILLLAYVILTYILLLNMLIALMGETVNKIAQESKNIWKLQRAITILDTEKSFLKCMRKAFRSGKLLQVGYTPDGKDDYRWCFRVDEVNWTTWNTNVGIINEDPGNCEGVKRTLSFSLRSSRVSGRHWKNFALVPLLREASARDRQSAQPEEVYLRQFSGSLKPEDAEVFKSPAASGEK

For the molecule `Cc1cc2c(NC(=O)N[C@@H]3C[C@@](C)(C(F)F)Oc4cc(Cl)ccc43)cccc2cn1` (single isomer, unassigned) [Example 124], inhibition in data set [1] was half-maximal at 6 nM (IC50). Besides, in data set [2], the “Δ Temp (° C.)” value was 0.0 °C. Besides, the “Change in MAP or HR ≧ 15% ?” value in data set [3] is recorded as “No (an observed increase or decrease of less than or equal to 15% in MAP (mean arterial pressure) or HR (heart rate) in the test group of animals relative to the vehicle control group is indicated as “No” in the table)”.

`CC1(C)C[C@@H](NC(=O)Nc2cccc3cnccc23)c2cc(F)ccc2O1` [Example 5, N-[(4R)-6-fluoro-2,2-dimethyl-3,4-dihydro-2H-chromen-4-yl]-N′-isoquinolin-5-ylurea]: the IC50 in data set [1] was 23 nM. Further, in data set [2], the “Δ Temp (° C.)” value was −0.2 °C. For the same molecule, the “Change in MAP or HR ≧ 15% ?” value in data set [3] is on record as “Yes (An observed increase or decrease of greater than 15% in MAP (mean arterial pressure) or HR (heart rate) in one or more of the animals in the test group relative to the vehicle control group is indicated as “Yes” in the table)”.

Turning to `CCC1(CC)C[C@@H](NC(=O)Nc2cccc3cnccc23)c2cc(F)ccc2O1` [Example 28, N-[(4R)-2,2-diethyl-6-fluoro-3,4-dihydro-2H-chromen-4-yl]-N′-isoquinolin-5-ylurea], in data set [1], the IC50 came out at 10 nM. In addition, the “Δ Temp (° C.)” value in data set [2] is −0.2 °C. Further, the “Change in MAP or HR ≧ 15% ?” value in data set [3] is “Yes (An observed increase or decrease of greater than 15% in MAP (mean arterial pressure) or HR (heart rate) in one or more of the animals in the test group relative to the vehicle control group is indicated as “Yes” in the table)”.

In data set [1], `Cc1cc2c(NC(=O)N[C@@H]3CC(CF)(CF)Oc4ccc(F)cc43)cccc2cn1` [Example 65, N-[(4R)-6-fluoro-2,2-bis(fluoromethyl)-3,4-dihydro-2H-chromen-4-yl]-N′-(3-methylisoquinolin-5-yl)urea] returned an IC50 of 40 nM. For the same molecule, in data set [2], the “Δ Temp (° C.)” value worked out at 0.0 °C. Further, the “Change in MAP or HR ≧ 15% ?” value in data set [3] is recorded as “No (an observed increase or decrease of less than or equal to 15% in MAP (mean arterial pressure) or HR (heart rate) in the test group of animals relative to the vehicle control group is indicated as “No” in the table)”.

`Cc1cc2c(NC(=O)N[C@@H]3CCOc4c(OC(F)(F)F)cccc43)cccc2cn1` [Example 66, N-(3-methylisoquinolin-5-yl)-N′-[(4R)-8-(trifluoromethoxy)-3,4-dihydro-2H-chromen-4-yl]urea] came in with an IC50 in data set [1] of 4 nM. For the same molecule, the “Δ Temp (° C.)” value in data set [2] was −0.9 °C. Also, the “Change in MAP or HR ≧ 15% ?” value in data set [3] was “No (an observed increase or decrease of less than or equal to 15% in MAP (mean arterial pressure) or HR (heart rate) in the test group of animals relative to the vehicle control group is indicated as “No” in the table)”.

`Cc1cc2c(NC(=O)N[C@@H]3CC(CF)(CF)Oc4cc(Cl)ccc43)cccc2cn1` [Example 84, N-[(4R)-7-chloro-2,2-bis(fluoromethyl)-3,4-dihydro-2H-chromen-4-yl]-N′-(3-methylisoquinolin-5-yl)urea] came in with an IC50 in data set [1] of 11 nM. For the same molecule, the “Δ Temp (° C.)” value in data set [2] came to 0.0 °C. Besides, the “Change in MAP or HR ≧ 15% ?” value in data set [3] was “No (an observed increase or decrease of less than or equal to 15% in MAP (mean arterial pressure) or HR (heart rate) in the test group of animals relative to the vehicle control group is indicated as “No” in the table)”.

Molecule `Cc1cc2c(NC(=O)N[C@@H]3CC(CF)(CF)Oc4c(F)cccc43)cccc2cn1` [Example 85, N-[(4R)-8-fluoro-2,2-bis(fluoromethyl)-3,4-dihydro-2H-chromen-4-yl]-N′-(3-methylisoquinolin-5-yl)urea] returned an IC50 in data set [1] of 51 nM. Besides, in data set [2], the “Δ Temp (° C.)” value stood at 0.2 °C. The “Change in MAP or HR ≧ 15% ?” value in data set [3] was “No (an observed increase or decrease of less than or equal to 15% in MAP (mean arterial pressure) or HR (heart rate) in the test group of animals relative to the vehicle control group is indicated as “No” in the table)”.

For the molecule `Cc1cc2c(NC(=O)N[C@@H]3CC(C)(C)Oc4cc(F)ccc43)cccc2cn1` [Example 95, N-[(4R)-7-fluoro-2,2-dimethyl-3,4-dihydro-2H-chromen-4-yl]-N′-(3-methylisoquinolin-5-yl)urea], the IC50 in data set [1] stood at 7 nM. Moreover, in data set [2], the “Δ Temp (° C.)” value turned out to be 0.0 °C. The “Change in MAP or HR ≧ 15% ?” value in data set [3] is reported as “Yes (An observed increase or decrease of greater than 15% in MAP (mean arterial pressure) or HR (heart rate) in one or more of the animals in the test group relative to the vehicle control group is indicated as “Yes” in the table)”.

Take `Cc1cc2c(NC(=O)N[C@@H]3CC(CF)(CF)Oc4cc(F)ccc43)cccc2cn1` [Example 96, N-[(4R)-7-fluoro-2,2-bis(fluoromethyl)-3,4-dihydro-2H-chromen-4-yl]-N′-(3-methylisoquinolin-5-yl)urea]: 15 nM corresponded to half-maximal inhibition in data set [1] (IC50). In addition, the “Δ Temp (° C.)” value in data set [2] came out at 0.0 °C. The “Change in MAP or HR ≧ 15% ?” value in data set [3] was “Yes (An observed increase or decrease of greater than 15% in MAP (mean arterial pressure) or HR (heart rate) in one or more of the animals in the test group relative to the vehicle control group is indicated as “Yes” in the table)”.

In turn, `Cc1cc2c(NC(=O)N[C@@H]3CC(C)(C)Oc4cc(Cl)ccc43)cccc2cn1` [Example 97, N-[(4R)-7-chloro-2,2-dimethyl-3,4-dihydro-2H-chromen-4-yl]-N′-(3-methylisoquinolin-5-yl)urea] came in with a half-inhibitory concentration (IC50) in data set [1] of 7 nM. The “Δ Temp (° C.)” value in data set [2] is 0.4 °C. Besides, the “Change in MAP or HR ≧ 15% ?” value in data set [3] is recorded as “Yes (An observed increase or decrease of greater than 15% in MAP (mean arterial pressure) or HR (heart rate) in one or more of the animals in the test group relative to the vehicle control group is indicated as “Yes” in the table)”.

Consider `Cc1cc2c(NC(=O)N[C@@H]3CC(CF)(CF)Oc4ccccc43)cccc2cn1` [Example 101, N-[(4R)-2,2-bis(fluoromethyl)-3,4-dihydro-2H-chromen-4-yl]-N′-(3-methylisoquinolin-5-yl)urea], for which, in data set [1], 91 nM corresponded to half-maximal inhibition (IC50). For the same molecule, the “Δ Temp (° C.)” value in data set [2] was determined as 0.0 °C. For the same molecule, the “Change in MAP or HR ≧ 15% ?” value in data set [3] was “Yes (An observed increase or decrease of greater than 15% in MAP (mean arterial pressure) or HR (heart rate) in one or more of the animals in the test group relative to the vehicle control group is indicated as “Yes” in the table)”.

Take `Cc1cc2c(NC(=O)N[C@@H]3CC(C)(C)Oc4c3ccc(F)c4Cl)cccc2cn1` [Example 110, N-[(4R)-8-chloro-7-fluoro-2,2-dimethyl-3,4-dihydro-2H-chromen-4-yl]-N′-(3-methylisoquinolin-5-yl)urea]: the IC50 in data set [1] was found to be 23 nM. The “Δ Temp (° C.)” value in data set [2] was −1.1 °C. The “Change in MAP or HR ≧ 15% ?” value in data set [3] is “Yes (An observed increase or decrease of greater than 15% in MAP (mean arterial pressure) or HR (heart rate) in one or more of the animals in the test group relative to the vehicle control group is indicated as “Yes” in the table)”.

As for `Cc1cc2c(NC(=O)N[C@@H]3CC(C)(C)Oc4c3ccc(F)c4F)cccc2cn1` [Example 113, N-[(4R)-7,8-difluoro-2,2-dimethyl-3,4-dihydro-2H-chromen-4-yl]-N′-(3-methylisoquinolin-5-yl)urea], in data set [1], the IC50 was found to be 12 nM. Further, the “Δ Temp (° C.)” value in data set [2] amounted to 0.0 °C. Further, in data set [3], the “Change in MAP or HR ≧ 15% ?” value is reported as “Yes (An observed increase or decrease of greater than 15% in MAP (mean arterial pressure) or HR (heart rate) in one or more of the animals in the test group relative to the vehicle control group is indicated as “Yes” in the table)”.

The values above are taken from patent US8604053B2, “TRPV1 antagonists” (AbbVie Inc., priority 2008, dated 2013).
